{"source": "patent US20200261520A1", "about": "“Combination Therapies of Hepatitis B Virus (HBV)-infected individuals using Parapoxvirus Ovis (PPVO) and at Least one Further Antiviral Drug” (priority 2017, published 2020)", "key": {"[1]": {"system": "woodchuck hepatitis virus (WHV)", "assay": "T-cell proliferative responses of PBMCs to WHV peptides (CellTiter-Glo, stimulation index)", "format": "in vivo", "details": "chronic WHV carrier woodchucks; fold change from baseline at T0", "protocol": "In woodchucks, over a 36-week period, AIC649 was administered i.v. and then i.m., alone or in combination with an initial 12 weeks of the direct acting antiviral, ETV, given orally.\n(§1) The efficacy of AIC649 monotherapy, ETV monotherapy, or combination AIC649+ETV therapy was compared to a placebo control group (N=5 animals/group). […] Daily observations, changes in body weight and body temperatures, changes in hematology and clinical chemistry, as well as necropsy and histopathology were assessed for determination of safety.\nPBMCs were isolated from whole blood and cultured for 5 days in the presence of DMSO (negative control), lipopolysaccharide (LPS, positive control), recombinant human IL-2 (positive control), or pools of peptides covering the entire WHcAg, WHsAg, or WHxAg, respectively. Using the CellTiter-Glo® assay, the number of viable cells in each test well was assessed using a luminescent signal proportional to the amount of ATP present, and thus to the number of viable cells. Cultures were assessed after 5 days and a stimulation index (SI) was derived relative to the negative controls as a measure of T-cell responses to specific antigens/stimuli:\nSI=Test luminescence/negative control luminescence"}, "[2]": {"assay": "Safety assessment (mortality, observations, body weight, temperature, hematology, clinical chemistry, necropsy, histopathology)", "format": "in vivo, woodchuck", "details": "n=5/group at start of experiment; week of death", "protocol": "Treatment-induced changes in viremia, antigenemia, immunological parameters, as well as the induction of WHsAg antibody seroconversion were evaluated for determination of antiviral effects. Daily observations, changes in body weight and body temperatures, changes in hematology and clinical chemistry, as well as necropsy and histopathology were assessed for determination of safety.\nas §1, with “safety. […]” for “safety.”\nMortality was assessed daily for all animals.\nBody temperature and weight assessments were performed together, weekly. The animal identification number and body temperature were read from a microchip implanted in the dorsal base of the tail using a hand-held chip reader (Biomedical Data Systems Inc.). […]\nUncoagulated whole blood was collected in EDTA tubes. […] Samples were analyzed the following day using an automated cell counter system (coulter) with program settings for woodchucks (Bellezza, C. A., et al., 2002, Elsevier. p. 309-328). […]"}}}
{"smiles": "C=C1[C@H](CO)[C@@H](O)C[C@@H]1n1cnc2c(=O)[nH]c(N)nc21", "note": "[ETV, Entecavir]", "values": [{"measurement": "cell mediated immune responses (PBMCs stimulated with WHsAg peptides)", "setting": "[1]", "result": "not"}, {"measurement": "deaths in group", "setting": "[2]", "result": "1 animal each at week 4, 14, 21, 29"}]}
